Assay results taken from the supplement of paper PMC13380429.

How the values were obtained:
U2OS [1] = assay: cell viability relative to DMSO; higher = less toxic; conditions: 72 h
HepG2 [2] = assay: as above; conditions: 72 h
Calu-3 [3] = assay: as above; conditions: 72 h
Vero E6 [4] = assay: as above; conditions: 72 h
Caco-2 [5] = assay: as above; conditions: 72 h
[6] = system: A549-ACE2 infected with SARS-CoV-2; assay: morphology score (similarity to uninfected cells); higher = more like uninfected cells; conditions: 24 h
[7] = system: A549-ACE2 infected with SARS-CoV-2; assay: cell count relative to DMSO; higher = less toxic; conditions: 24 h
U2OS [8] = assay: relative viability EC50 (midpoint between 100% and the lowest measured viability); higher = less toxic; conditions: 72 h
HepG2 [9] = assay: as above; conditions: 72 h
Calu-3 [10] = assay: as above; conditions: 72 h
Caco-2 [11] = assay: as above; conditions: 72 h
[12] = system: A549-ACE2 infected with SARS-CoV-2; assay: SARS-CoV-2 infection rate relative to DMSO; higher = more infection; conditions: 24 h
A549-ACE2 = assay: drug-induced phospholipidosis relative to tamoxifen; higher = more phospholipidosis
U2OS [13] = assay: drug sensitivity score (DSS) for viability; higher = more toxic; extreme values may be limits of the assay; conditions: 72 h
HepG2 [14] = assay: as above; conditions: 72 h
Calu-3 [15] = assay: as above; conditions: 72 h
Vero E6 [16] = assay: as above; conditions: 72 h
Caco-2 [17] = assay: as above; conditions: 72 h
Vero E6 [18] = assay: relative viability EC50 (midpoint between 100% and the lowest measured viability); higher = less toxic; conditions: 72 h

CNC(=O)c1cc(Oc2ccc(NC(=O)Nc3ccc(Cl)c(C(F)(F)F)c3)cc2)ccn1 [sorafenib]
Conditions	SARS-CoV-2 infection rate, [12] [%]	cell count, [7] [%]	cell viability, Caco-2 [5] [%]	cell viability, Calu-3 [3] [%]	cell viability, HepG2 [2] [%]	cell viability, U2OS [1] [%]	cell viability, Vero E6 [4] [%]	morphology score, [6]
1 nM	–	–	95.1	107	105	98.7	97.4	–
10 nM	–	–	93.2	104	113	99.1	98.9	–
100 nM	–	–	96.1	109	99.2	103	104	–
0.1 µM	110	97	–	–	–	–	–	-0.27
0.3 µM	103	101	–	–	–	–	–	-0.32
1000 nM	–	–	99.1	108	80.5	111	113	–
1 µM	116	92	–	–	–	–	–	-0.4
3 µM	103	93	–	–	–	–	–	-0.27
10000 nM	–	–	47.9	82.2	12.7	39.7	55.6	–

Conditions	drug sensitivity score	relative viability EC50 [µM]
Caco-2 [11]	–	3.04
Caco-2 [17]	2.9	–
Calu-3 [10]	–	> 10
Calu-3 [15]	0.2	–
HepG2 [9]	–	1.64
HepG2 [14]	7.9	–
U2OS [8]	–	3.88
U2OS [13]	2.6	–
Vero E6 [16]	1.7	–

drug-induced phospholipidosis [%], A549-ACE2
Conditions	0.3 µM	0.833333 µM	3.33333 µM	6.66667 µM	10 µM	30 µM
24 h	-0.66	-4.32	-10.5	-0.85	-20.6	-18.5
48 h	0.68	-2.57	-3.57	0.31	–	–
72 h	3.23	-1.46	-1.25	-4.18	–	–

CC(C)n1cnc2c(NCCc3ccc(O)cc3)nc(-c3csc4ccccc34)nc21 [stemregenin-1]
Conditions	SARS-CoV-2 infection rate, [12] [%]	cell count, [7] [%]	cell viability, Caco-2 [5] [%]	cell viability, Calu-3 [3] [%]	cell viability, HepG2 [2] [%]	cell viability, U2OS [1] [%]	cell viability, Vero E6 [4] [%]	morphology score, [6]
1 nM	–	–	92.3	99.6	92.7	103	99.4	–
10 nM	–	–	104	109	91.9	101	101	–
100 nM	–	–	87.3	101	97.4	95.1	104	–
0.3 µM	93	101	–	–	–	–	–	0.34
1000 nM	–	–	99.3	80.4	91.6	96.3	100	–
3 µM	84	103	–	–	–	–	–	0.46
10000 nM	–	–	54	54.3	70.7	80.7	85.7	–
10 µM	60	117	–	–	–	–	–	0.84
30 µM	26	45	–	–	–	–	–	0

Conditions	drug sensitivity score	relative viability EC50 [µM]
Caco-2 [17]	2.5	–
Calu-3 [15]	5	–
HepG2 [14]	2.3	–
U2OS [8]	–	> 10
U2OS [13]	1	–
Vero E6 [16]	0.2	–
Vero E6 [18]	–	> 10

drug-induced phospholipidosis [%], A549-ACE2
Conditions	0.3 µM	0.833333 µM	3.33333 µM	6.66667 µM	10 µM	30 µM
24 h	6.01	1.64	8.25	15.8	28.5	16.7
48 h	9.44	5.9	8.13	14.7	21.9	–
72 h	7.3	7.32	13.4	21.2	27	–

CN(C)CCN1C(=O)c2cccc3cc(NC(N)=O)cc(c23)C1=O [unbs-5162]
cell viability [%]
Conditions	Caco-2 [5]	Calu-3 [3]	HepG2 [2]	U2OS [1]	Vero E6 [4]
1 nM	96.5	100	100	104	108
10 nM	99.3	105	101	99.7	101
100 nM	93.5	95.9	93.7	96.4	107
1000 nM	104	88.6	86.5	101	95.1
10000 nM	96	78.4	42.2	88	90.8

Conditions	drug sensitivity score	relative viability EC50 [µM]
Caco-2 [11]	–	> 10
Caco-2 [17]	0	–
Calu-3 [10]	–	> 10
Calu-3 [15]	1.5	–
HepG2 [9]	–	1.61
HepG2 [14]	5.3	–
U2OS [8]	–	> 10
U2OS [13]	0	–
Vero E6 [16]	0	–
Vero E6 [18]	–	> 10

CC(=O)C1=C(O)C=C2Oc3c(C(C)=O)c(O)c(C)c(O)c3C2(C)C1=O (stereo not drawn) [usniacin-(+)]
cell viability [%]
Conditions	Caco-2 [5]	Calu-3 [3]	HepG2 [2]	U2OS [1]	Vero E6 [4]
1 nM	104	107	111	98.9	101
10 nM	101	99.4	97.1	75.3	95.4
100 nM	91.1	95.2	102	95.8	100
1000 nM	95.6	113	110	83.5	98.9
10000 nM	108	96.4	94	95.5	101

Conditions	drug sensitivity score	relative viability EC50 [µM]
Caco-2 [11]	–	> 10
Caco-2 [17]	0	–
Calu-3 [10]	–	> 10
Calu-3 [15]	0	–
HepG2 [9]	–	> 10
HepG2 [14]	0	–
U2OS [8]	–	> 10
U2OS [13]	0	–
Vero E6 [16]	0	–
Vero E6 [18]	–	> 10

COc1cc(C=O)ccc1O [vanillin]
cell viability [%]
Conditions	Caco-2 [5]	Calu-3 [3]	HepG2 [2]	U2OS [1]	Vero E6 [4]
1 nM	92.8	97.5	99.9	96.1	92
10 nM	90	107	91.9	104	91.5
100 nM	96	109	102	95.1	89.7
1000 nM	104	99.8	115	104	89
10000 nM	96.6	105	97.4	99.1	105

Conditions	drug sensitivity score	relative viability EC50 [µM]
Caco-2 [11]	–	> 10
Caco-2 [17]	0	–
Calu-3 [10]	–	> 10
Calu-3 [15]	0	–
HepG2 [9]	–	> 10
HepG2 [14]	0	–
U2OS [8]	–	> 10
U2OS [13]	0	–
Vero E6 [16]	0	–
Vero E6 [18]	–	> 10

COc1ccc(CCO[C@@H]2CCCC[C@H]2N2CC[C@@H](O)C2)cc1OC [vernakalant]
cell viability [%]
Conditions	Caco-2 [5]	Calu-3 [3]	HepG2 [2]	U2OS [1]	Vero E6 [4]
1 nM	101	111	89.2	102	97.8
10 nM	91.2	97.1	112	94.1	97.3
100 nM	93.9	106	99.2	103	91.7
1000 nM	101	104	100	95.2	98.6
10000 nM	106	109	110	101	106

Conditions	drug sensitivity score	relative viability EC50 [µM]
Caco-2 [11]	–	> 10
Caco-2 [17]	0	–
Calu-3 [10]	–	> 10
Calu-3 [15]	0	–
HepG2 [9]	–	> 10
HepG2 [14]	0	–
U2OS [8]	–	> 10
U2OS [13]	0	–
Vero E6 [16]	0	–
Vero E6 [18]	–	> 10

OCc1cc([C@@H](O)CNCCCCCCOCCOCc2c(Cl)cccc2Cl)ccc1O [vilanterol]
cell viability [%]
Conditions	Caco-2 [5]	Calu-3 [3]	HepG2 [2]	U2OS [1]	Vero E6 [4]
1 nM	94	99	97.8	96.8	95.3
10 nM	93.5	100	96.5	96.1	99.7
100 nM	96	89.8	89.5	101	89.2
1000 nM	96.2	102	104	100	98.9
10000 nM	94.3	97	109	94	107

Conditions	drug sensitivity score	relative viability EC50 [µM]
Caco-2 [11]	–	> 10
Caco-2 [17]	0	–
Calu-3 [10]	–	> 10
Calu-3 [15]	0	–
HepG2 [9]	–	> 10
HepG2 [14]	0	–
U2OS [8]	–	> 10
U2OS [13]	0	–
Vero E6 [16]	0	–
Vero E6 [18]	–	> 10

CC1(CN2CCC(n3c(=O)[nH]c4ccccc43)CC2)OCc2ccccc2-n2cccc21 (stereo not given) [zaldaride]
cell viability [%]
Conditions	Caco-2 [5]	Calu-3 [3]	HepG2 [2]	U2OS [1]	Vero E6 [4]
1 nM	99.6	86.3	94.9	102	98.9
10 nM	91.6	96.1	96.4	94.6	97.7
100 nM	101	101	86.6	98	98.7
1000 nM	88.1	84.7	104	95.7	100
10000 nM	93.1	94.5	76	99.1	89.9

Conditions	drug sensitivity score	relative viability EC50 [µM]
Caco-2 [11]	–	> 10
Caco-2 [17]	0	–
Calu-3 [10]	–	> 10
Calu-3 [15]	0	–
HepG2 [9]	–	> 10
HepG2 [14]	0.7	–
U2OS [8]	–	> 10
U2OS [13]	0	–
Vero E6 [16]	0	–
Vero E6 [18]	–	> 10

C[C@H](CSC(=O)c1ccccc1)C(=O)N1C[C@@H](Sc2ccccc2)C[C@H]1C(=O)O [zofenopril-calcium]
cell viability [%]
Conditions	Caco-2 [5]	Calu-3 [3]	HepG2 [2]	U2OS [1]	Vero E6 [4]
1 nM	86.1	92.9	101	98.4	114
10 nM	94.3	90.7	108	102	99.9
100 nM	106	105	94.7	99.6	103
1000 nM	96.6	96	102	95.1	101
10000 nM	99.6	88.3	95.3	101	106

Conditions	drug sensitivity score	relative viability EC50 [µM]
Caco-2 [11]	–	> 10
Caco-2 [17]	0	–
Calu-3 [10]	–	> 10
Calu-3 [15]	0.2	–
HepG2 [9]	–	> 10
HepG2 [14]	0	–
U2OS [8]	–	> 10
U2OS [13]	0	–
Vero E6 [16]	0	–
Vero E6 [18]	–	> 10

Cc1nn(C)c2c1C(c1cccc(Cl)c1)=NCCN2 [zometapine]
cell viability [%]
Conditions	Caco-2 [5]	Calu-3 [3]	HepG2 [2]	U2OS [1]	Vero E6 [4]
1 nM	95.7	102	93.3	95.6	104
10 nM	86.7	104	105	105	105
100 nM	82.4	99.8	99.9	98.4	98
1000 nM	117	101	106	102	97.8
10000 nM	105	98.2	89	96.9	95.1

Conditions	drug sensitivity score	relative viability EC50 [µM]
Caco-2 [11]	–	> 10
Caco-2 [17]	0	–
Calu-3 [10]	–	> 10
Calu-3 [15]	0	–
HepG2 [9]	–	> 10
HepG2 [14]	0	–
U2OS [8]	–	> 10
U2OS [13]	0	–
Vero E6 [16]	0	–
Vero E6 [18]	–	> 10
